Counter-ions that a name gives are not always drawn. Like-named read-outs stand apart in the source and are kept apart here.
How the values were obtained:
[1] = clearance of EGCg from the blood; details: in vivo
4T1 cells = assay: growth of 4T1 cells over 48 h, 96-well plate assay; assay type: cell-based, mouse; details: 4T1, 48 h
Description: (§1) HeLa (ATCC CCL2) cells were grown in 150 cm^2 flasks in Minimal Essential Medium (Gibco), pH 7.4, at 37° C. with 10% bovine calf serum (heat inactivated, plus 50 mg/l gentamicin sulfate (Sigma). A mouse mammary tumor subpopulation line 4T1 arising from a BALB/cfC3H mouse (Miller et al., 1981, Brit. J. Cancer 56:561 and Miller et al., 1990, Invasion Metastasis 10:101) was grown in DME 10, Dulbecco's modified Eagle's medium supplemented with 5% fetal calf serum, 5% newborn calf serum, 1 mM mixed non-essential amino acids, 2 mM L-glutamine, penicillin (100 units/ml), and streptomycin (100 μg/ml).
Cells were quantitated using a standard cytotoxicity assay (Matthews & Neale, 1987, In Lymphokines and Interferons. A Practical Approach. Clemens, M. J. et al., eds. IRL Press, Oxford, p. 221).

cancer cells = assay: cancer cell growth and apoptosis under EGCg; assay type: cell-based
HeLa cells = assay: growth of HeLa cells in culture, 96-well plate assay; assay type: cell-based, human; details: for A580, % of no addition / Growth, % of control: HeLa; for Growth, % of control: no source
[2] = biological target: T1, NADH oxidase (tNOX) of HeLa cells (Homo sapiens, UniProt Q16206); assay: inhibition of NADH oxidase (tNOX) activity of HeLa cells; assay type: biochemical
T1 construct: endogenous in cells; host or cells: HeLa (ATCC CCL2)
T1 sequence (Q16206 1-610): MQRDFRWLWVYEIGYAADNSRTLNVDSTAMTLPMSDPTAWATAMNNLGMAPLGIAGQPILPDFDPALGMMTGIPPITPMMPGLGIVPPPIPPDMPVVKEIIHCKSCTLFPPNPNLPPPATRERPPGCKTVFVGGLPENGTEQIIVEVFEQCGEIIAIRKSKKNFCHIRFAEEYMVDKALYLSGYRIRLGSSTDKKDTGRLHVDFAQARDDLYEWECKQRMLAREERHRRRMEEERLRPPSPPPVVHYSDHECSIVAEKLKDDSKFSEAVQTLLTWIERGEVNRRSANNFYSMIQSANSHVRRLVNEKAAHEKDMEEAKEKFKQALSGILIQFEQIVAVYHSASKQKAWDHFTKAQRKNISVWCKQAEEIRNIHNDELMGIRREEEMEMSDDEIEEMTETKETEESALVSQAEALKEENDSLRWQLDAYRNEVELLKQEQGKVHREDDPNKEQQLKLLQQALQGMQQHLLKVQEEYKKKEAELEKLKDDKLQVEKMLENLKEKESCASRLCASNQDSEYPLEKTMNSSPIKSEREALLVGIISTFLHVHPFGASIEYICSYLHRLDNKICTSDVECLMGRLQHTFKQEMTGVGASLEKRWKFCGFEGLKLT
Description: as §1
(§2) NADH oxidase activity may be monitored and measured by virtue of the decrease in absorbance at 340 nm wavelength. A millimolar extinction coefficient of 6.22 for NADH was used to calculate rates of NADH oxidation. Additional tests are such as those described by Morre, 1994, Bioenerg. Biomemb. 26:421, and Chueh et al., 1997, J. Biol. Chem. 272:11221, which are incorporated by reference in their entireties.

[3] = biological target: T2, NADH oxidase (tNOX) of 4T1 cells (Mus musculus, UniProt Q8R0Z2); assay: inhibition of NADH oxidase (tNOX) activity of 4T1 cells; assay type: biochemical
T2 construct: endogenous in cells; host or cells: 4T1 mouse mammary tumor cells
T2 sequence (Q8R0Z2 1-598): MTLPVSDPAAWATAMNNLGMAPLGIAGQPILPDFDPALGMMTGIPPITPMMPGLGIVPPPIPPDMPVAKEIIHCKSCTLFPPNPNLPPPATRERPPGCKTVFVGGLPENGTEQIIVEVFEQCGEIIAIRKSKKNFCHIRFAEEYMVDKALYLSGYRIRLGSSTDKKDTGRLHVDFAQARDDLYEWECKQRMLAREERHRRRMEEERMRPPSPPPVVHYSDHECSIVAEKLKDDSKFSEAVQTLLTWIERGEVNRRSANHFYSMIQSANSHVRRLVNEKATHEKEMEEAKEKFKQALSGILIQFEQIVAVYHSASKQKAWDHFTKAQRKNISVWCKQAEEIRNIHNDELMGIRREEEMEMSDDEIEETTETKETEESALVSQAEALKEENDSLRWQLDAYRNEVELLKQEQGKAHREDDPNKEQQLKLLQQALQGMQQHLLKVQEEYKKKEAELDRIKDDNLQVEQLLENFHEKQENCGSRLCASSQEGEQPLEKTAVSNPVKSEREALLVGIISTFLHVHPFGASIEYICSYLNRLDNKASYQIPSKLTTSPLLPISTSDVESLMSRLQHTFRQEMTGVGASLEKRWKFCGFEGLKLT
Description: as §1, §2

NADH oxidase = biological target: T3, NADH oxidase (Homo sapiens, UniProt Q16206); assay: NADH oxidase assay, genestein interactions (data not shown); assay type: biochemical
T3 sequence (Q16206 1-610): T1 sequence (Q16206 1-610)
Source text: as §2

[4] = test system: 4T1 mouse mammary carcinoma cells; assay: tumor weight and metastases of 4T1 mouse mammary carcinoma cells in BALBc mice; assay type: in vivo
Description: Cells from monolayer culture were suspended in Hank's buffered salt solution and 1×10^6 cells were injected into the subscapular region in a volume of 0.1 ml.
Anti-metastatic drugs were administered in the dose/injection indicated intratumoral in 0.1 ml total volume on alternate days beginning after palpable tumor masses were discernible (approximately 7 days post implantation) for a total of 6 injections. Appropriate solvent and sham-injected controls were included. At […] post tumor implantations, mice were sacrificed and major organs (e.g., lung, liver, lymph nodes) were examined for evidence of metastases.

With (−)-epigallocatechin gallate [EGCg] the “clearance from the blood” value [1] was “rapidly cleared from the blood and metabolized”, the “A580, % of no addition” value (4T1 cells; final concentration 20 μM) was 58 % of no addition and the “growth of cancer cells” value (cancer cells; challenged with 10^−7 M EGCg every two hours during the day) was “inhibited”. The “reversibility of the effect on cancer cell growth” value (cancer cells; if the EGCg is removed, cancer cells resume normal rates of growth) was “reversible”, the “inhibition of growth of HeLa cells” value (HeLa cells; EGCg at 1 μM) was 12% and the “A580, % of no addition” value (HeLa cells; 48 h, final concentration 20 μM) was 90 % of no addition. The “Growth, % of control” value (HeLa cells; 48 h, EGCg 1:150) was 112 % of control, the “Growth, % of control” value (HeLa cells; 72 h, EGCg 1:150) was 97 % of control and the EC50 ([2]; HeLa cells grown in culture (Table 3), read-out: EC50(M), inhibition of tNOX activity) was 1e-07 M. The EC50 ([3]; 4T1 cells grown in culture (Table 3), read-out: EC50(M), inhibition of tNOX activity) was 1e-08 M.
In the case of `O=c1c(-c2ccc(O)cc2)coc2cc(O)cc(O)c12` [genestein], the “growth of HeLa cells” value (HeLa cells; data not shown) is reported as “inhibited”, the “interactions of genestein with EC or Tegreen” value (HeLa cells; data not shown) is reported as “additive” and the “inhibition of growth of HeLa cells” value (HeLa cells; genestein at 10 μM) is reported as 87%. The toxicity (HeLa cells; genestein at 100 μM) was “toxic”, the “interactions with EGCg on growth of HeLa cells” value (HeLa cells; higher genestein concentrations) was “no interactions were seen” and the “interactions with 1 μM EGCg on growth of HeLa cells” value (HeLa cells; low genestein concentrations, data not shown) was “additive”. For the same compound, the “synergy with either vanillylamine or EGCg in the NADH oxidase assay” value (NADH oxidase) was “did not exhibit”.
With `COc1cc(CN)ccc1O` [Vanillylamine, 4-hydroxy-3-methoxybenzy amine hydrochloride] the “A580, % of no addition” value (4T1 cells; final concentration 1 μM) was 144 % of no addition, the “A580, % of no addition” value (HeLa cells; 48 h, final concentration 1 μM) was 128 % of no addition and the “Growth, % of control” value (HeLa cells; 48 h, vanillylamine 1:150) was 130 % of control. For the same compound, the “Growth, % of control” value (HeLa cells; 72 h, vanillylamine 1:150) was 120 % of control, the EC50 ([2]; HeLa, 1.5 × 10^6 cells (Table 2), read-out: EC50(M), inhibition of NADH oxidase) was 1e-09 M and the Tumor weight ([4]; BALBc mice, intratumoral on alternate days, 6 injections, sacrifice 15 days post implantation) was 0.50 ± 0.20. For the same compound, the “neurological discomfort and possible toxicity” value ([4]; mouse model) was “without the neurological discomfort and possible toxicity”, the “prevention of metastasis in a mouse model” value ([4]; mouse model) was “effective” and the “Tumor growth and metastatic spread” value ([4]; three animals) was “prevented”. It also gave an EC50 ([3]; 4T1, 1.5 × 10^6 cells (Table 2), read-out: EC50(M), inhibition of NADH oxidase) of 5e-09 M.

Reference: patent US6759064B2, “Compositions based on vanilloid-catechin synergies for prevention and treatment of cancer” (Purdue Research Foundation, priority 2001, dated 2004)
